What all share (test): NCI anticancer screen, dose series, 48 h
Test [1] concerns SW-620 colon.
Test [2] deals with OVCAR-4 ovarian.
Test [3] concerns MDA-N.
Test [4] deals with HS 578T breast.
The test system of test [5] is SNB-19 CNS.
Test [6] concerns IGROV1 ovarian.
The subject of test [7] is MDA-MB-231 breast.
In test [8] the test system is MCF7 breast.
The subject of test [9] is HL-60(TB) leukemia.
Test [10] has as its system PC-3 prostate.
Test [11] deals with NCI-H226 lung.
In test [12] the test system is SF-295 CNS.
For test [13], the system named is KM12 colon.
Test [14] relates to ACHN renal.

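Five concentrations, 48 hours, 96-well plates. Definition used: TGI = concentration required for complete inhibition of growth.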

As to `O=C(O)c1cc2c(cc1CC(Cc1ccc3c(c1)CCC3)C(=O)O)CCC2` (stereo not given), the TGI in test [1], in [2], in test [3], in test [4], in test [5] and in test [6] was above 100 µM throughout. Besides, the TGI in test [7], in [8], in [9], in test [10], in test [11] and in test [12] was above 100 µM each time. Besides, the TGI in test [13] and in test [14] was above 100 µM in each case.
Turning to `Cc1ccc([C@@H]2[C@@H](C(=O)c3ccccn3)[C@H](c3ccc(C)cc3)C[C@](O)(c3ccccn3)[C@H]2C(=O)c2ccccn2)cc1`, the TGI in test [1] was above 100 µM; in [2], above 100 µM; in test [3], above 28.5 µM; in [4] it was above 100 µM; in [5], above 64.3 µM; in test [6], above 100 µM. Moreover, the TGI is above 100 µM in [7]; above 100 µM in test [8]; 6.92 µM in test [9]; above 100 µM in test [10]; above 100 µM in test [11]; above 100 µM in test [12]. Moreover, the TGI in [13] is above 100 µM; in [14], above 40.4 µM.
Take `COc1cc(/C=C2/C(=O)N(C(=O)c3ccccc3O)N=C2C)cc(OC)c1OC`: the TGI is above 100 µM in [1]; above 100 µM in test [2]; above 100 µM in test [3]; above 100 µM in [4]; above 100 µM in test [5]; 4.71 µM in test [6]. The TGI in test [7] is above 100 µM; in test [8] it was 34.9 µM; in test [9], above 60.3 µM; in [10], above 100 µM; in [11], above 100 µM; in test [12], above 100 µM. For the same compound, the TGI in test [13] and in test [14] was above 100 µM each time.
As to `COCOC1/C=C/CCCC#C[C@H](C)C(=O)CC1` (stereo not given in full), the TGI is 5.64 µM in test [1]; 22.3 µM in [2]; 24.3 µM in test [3]; 46.4 µM in [4]; 32.6 µM in [5]; 22.7 µM in test [6]. Besides, the TGI in test [7] came out at 17 µM; in test [8] it was 23.1 µM; in test [9], 5.12 µM; in [10] it was 21.5 µM; in test [11], 35 µM; in [12], 31.7 µM. Further, the TGI worked out at 17 µM in test [13] and 27.8 µM in test [14].
Turning to `NC(=O)N/N=C(\Cc1nc2ccc(Cl)cc2[nH]c1=O)C(=O)Nc1ccc(Cl)cc1Cl`, the TGI in test [1], in test [2], in [3], in test [4], in [5] and in [6] was above 100 µM in each case. The TGI in [7], in test [8], in test [9], in [10], in [11] and in test [12] was above 100 µM each time. For the same compound, the TGI in test [13] and in test [14] was above 100 µM in each case.
As for `CC[C@]1(Cc2ccc(OC)c(OC)c2)CN(S(=O)(=O)c2ccc(C)cc2)C[C@@H]1OC(C)=O`, the TGI in [1], in [2], in test [3], in [4], in test [5] and in test [6] was above 100 µM in each case. In addition, the TGI in [7], in test [8], in [9], in [10], in [11] and in test [12] was above 100 µM throughout. Besides, the TGI in test [13] and in test [14] was above 100 µM in each case.
As to `O=C1/C(=C/c2ccccc2)N=C(c2ccccc2)N1n1c(-c2ccccc2)nc2ccccc2c1=O`, the TGI in test [1], in test [2], in test [3], in test [4], in test [5] and in test [6] was above 100 µM in each case. The TGI in [7], in test [8], in test [9], in [10], in [11] and in test [12] was above 100 µM throughout. The TGI in test [13] and in [14] was above 100 µM each time.
Take `CC(C)(N=NC(C)(C)C(=O)NCCO)C(=O)NCCO`: the TGI in [1], in test [2], in test [3], in [4], in test [5] and in test [6] was above 100 µM each time. Moreover, the TGI in test [7], in [8], in [9], in [10], in test [11] and in test [12] was above 100 µM each time. The TGI in [13] and in test [14] was above 100 µM in each case.
Regarding `COCOC1/C=C/CCCCC2=C(C)C=C(C1)O2` (stereo not given), the TGI in [1], in test [2], in [3], in [4], in [5] and in test [6] was above 100 µM in each case. For the same compound, the TGI in test [7], in [8], in test [9], in test [10], in [11] and in test [12] was above 100 µM in each case. Further, the TGI in test [13] and in test [14] was above 100 µM throughout.
On to `Cc1c(F)c(N)c2c(=O)cc(-c3ccc(NC(=O)CN(C)C)c(F)c3)oc2c1F`, for which the TGI is above 74.6 µM in [1]; above 92.5 µM in test [2]; above 100 µM in test [3]; above 100 µM in [4]; above 100 µM in [5]; above 100 µM in test [6]. Also, the TGI in [7] is above 83.7 µM; in test [8], above 66.1 µM; in test [9], 46.4 µM; in test [10], above 100 µM; in test [11], above 100 µM; in test [12], above 100 µM. Moreover, the TGI in test [13] and in test [14] was above 100 µM in each case.

These data come from PubChem BioAssay (NCI).
